Laboratory results reported in patent US20150018566A1, “TUBULIN BINDING AGENTS” (priority 2011, published 2015).

Tests used:
HUVECs [1] = test: Immunofluorescence staining of the microtubule; assay type: cell-based, human; details: 1 μM, 30 minutes, α-tubulin staining
Protocol: In order to confirm that test compounds are able to interfere with cells' tubulin cytoskeleton, immunofluorescence staining was performed. The effect of test compounds on the tubulin reorganization was visualised by staining of microtubules using an α-tubulin antibody and the cell nuclei using 4′,6-diamidino-2-phenylindole (DAPI).
The effect of the compounds on the microtubule disruption was examined by staining for α-tubulin. Sterile cover slips were placed in each well of a 6-well plate and 1×10^6 cells/ml (1 ml) HUVECs were seeded and allowed to attach on the cover slips overnight at 37° C. The following day the medium was removed from the wells, replaced by 1 μM of test compounds diluted in medium and incubated for 30 minutes at 37° C. Next, the medium was removed and the cells were fixed in pre-cooled methanol (1 ml) at −20° C. for 30 minutes. Then, the cells were washed twice with 1 ml PBS (5 minutes each time). The primary monoclonal antibody for a-tubulin was diluted in PBS (1:200) and added (1 ml) in each well for 1 h at room temperature (RT). After that, the cells were washed three times with 1 ml PBS and incubated with 1 ml of secondary Alexa Fluor 488 antibody diluted in PBS (1:1000) for 30 minutes at RT in the dark. The cells were washed for a further three times with 1 ml PBS and allowed to air-dry for 10 minutes. The cover slips containing the attached cells were mounted on microscopy slides using ProLong® gold antifade reagent with DAPI (for nuclear staining) and stored at 4° C. until time for analysis. Images were taken using an Olympus FV1000 Point Scanning Confocal Microscope provided by the Department of Biochemistry, TCD. Experiments were performed in duplicate at two independent times. The results were presented as images of the microtubule disruption of endothelial cells.

HUVECs [2] = test: Analysis of endothelial cell morphology; assay type: cell-based, human; details: for effect on endothelial cell morphology: 40 minutes exposure; for reversibility of the morphology effect: 3 h after drug washout
Protocol: Tubulin inhibitors are not only known for their anti-mitotic effect but also for their anti-vascular activity. Treatment with such agents was previously shown to cause vascular shutdown independently of a direct cytotoxic effect on tumour cells. […] The 1 h incubation period (after drug washout) aimed to identify any observable morphological changes of endothelial cells; however the 3 h incubation period served to indicate any signs of reversibility of this effect.
The effect of test compounds on endothelial cells' morphology was examined. 1×10^6 cells/ml HUVECs (1 ml) were seeded into 6-well plates and incubated overnight at 37° C. The next day, the medium was removed and replaced by control solutions (0.1% DMSO in medium) and test compounds diluted in fresh medium. The cells were incubated for 40 minutes at 37° C. Following that, each well was washed with medium to remove detached cells and incubated with fresh medium for a further 1 h or 3 h at 37° C. Next, the medium was removed and 0.5% crystal violet solution was prepared in 20% ethanol and 1 ml was added in each well for 15 minutes at RT. The wells were then washed 3 times with d. water (5 minutes each time). Wells were allowed to air dry and cell morphology was examined under an Olympus CKX41 inverted microscope using a x4 objective. Images were captured with an E-330 SLR camera system 1 h and 3 h after the washout of compounds. Digital images were processed using Cell̂ A software (Mason Technology, Ireland). The experiments were performed in triplicate and the results were presented as images of the morphological changes of endothelial cells after 1 h and 3 h of drug washout.

rat aortic ring cultures [3] = test: Aortic ring assay (anti-vascular model); assay type: cell-based; details: for anti-vascular effect on existing microvessel network: 100 nM
Protocol: The aortic ring assay is an ideal assay for testing the activity of anti-vascular, anti-angiogenic or pro-angiongenic agents. This method was originally developed and modified by Nicosia. The aorta can be excised from mice or rats, cut into ˜1 mm rings and cultured in either basement membrane matrix (matrigel) or collagen gel. Following incubation for several days the rings start to generate outgrowths of branching microvessels which are lined by endothelial cells and supported by pericytes and fibroblasts. The angiogenic response of the aorta is a self-limited process regulated by endogenous growth factors including bFGF [13], VEGF [14], PDGF [15] and angiopoietins.
The rat aorta model is an ex vivo assay which combines advantages of both in vitro and in vivo models. The process of angiogenesis takes place in a defined culture environment which can be easily adapted to different experimental conditions according to the requirement of the study. The cells of the aortic outgrowth have not been modified by repeated passages in culture and thus newly formed microvessels reproduce the characteristics of the vasculature formed during angiogenesis in vivo [17-18]. There is no influx of leukocytes from circulating blood therefore inflammatory complications which affect the interpretation of in vivo assays are minimised. For the purpose of this study, rat aortic ring cultures were used to investigate firstly the anti-vascular and then the anti-angiogenic activity of test compounds.
The successful growth of the aortic rings into a mircovessel network was dependent on several factors including (i) the amount of periaortic fibroadipose tissue left on the ring, (ii) the orientation of the ring, the way which the ring was embedded into the matrigel and (iii) the volume of the matrigel used.
The aortic ring assay is an ex vivo assay which allows the analyst to examine the inhibition/stimulation of angiogenesis as well as the breakdown of existing vasculature. Basement membrane matrix (matrigel) was stored at −20° C. Prior to use, matrigel vial was placed on ice and kept at 4° C. overnight in order to thaw. The matrigel was kept on ice at all times for the duration of the experiment. Aortic rings were obtained by excising the thoracic aorta of 5-10 weeks old Wistar male rats and removing the fibroadipose tissue from the aortic wall. The rings were obtained by cross-sectioning the aorta at ˜1 mm intervals, removed any blood clots by washing several times with EBM-2. Matrigel (80 μl) was placed uniformly in each well of a 12-well plate and the aortic rings were then placed individually in between the matrigel layer with the lumen perpendicular to the surface of the plate. The matrigel solution was allowed to solidify for 30-40 minutes at 37° C. and 1 ml EBM-2 medium (supplemented with 2% FBS and […] streptomycin/penicillin solution) was added to each culture. The aortic rings were kept in a humidified CO2 incubator at 37° C. and fresh medium was replaced three times a week starting from day 3. Once an established microvessel network was developed (day 7-9), test compounds diluted in EBM-2 medium (1 ml) were added to each well and incubated at 37° C. for 24 h. The cultures were monitored for microvessel breakdown over time and images were taken 1 h, 4 h and 24 h after treatment using an Olympus CKX41 inverted microscope. Images were captured with an E-330 SLR camera system and processed using Cell̂ A software. Each compound concentration was tested in duplicate. Results were presented as images showing the microvessel breakdown at each time point.

rat aortic ring cultures [4] = test: Aortic ring assay (anti-angiogenic effect); assay type: cell-based

SMILES	microtubule disruption (HUVECs [1])	effect on endothelial cell morphology (HUVECs [2]; 0.1 μM)	reversibility of the morphology effect (HUVECs [2])	anti-vascular effect on existing microvessel network (rat aortic ring cultures [3]; 4 h of treatment)	anti-vascular effect on existing microvessel network (rat aortic ring cultures [3]; 24 h of treatment)	anti-angiogenic effect (microvessel formation) (rat aortic ring cultures [4]; 1 nM)	anti-angiogenic effect (microvessel formation) (rat aortic ring cultures [4]; 10 nM)	anti-angiogenic effect (microvessel formation) (rat aortic ring cultures [4]; 100 nM)	anti-angiogenic effect (microvessel formation) (rat aortic ring cultures [4]; 50 nM)	effect on endothelial cell morphology (HUVECs [2]; 1 μM)	anti-vascular effect on established microvessel network (rat aortic ring cultures [3]; 0.1 μM)	anti-vascular effect on established microvessel network (rat aortic ring cultures [3]; 1 μM, 24 h incubation)	anti-vascular effect on established microvessel network (rat aortic ring cultures [3]; 1 nM)	anti-vascular effect on established microvessel network (rat aortic ring cultures [3]; 10 nM)	anti-vascular effect on established microvessel network (rat aortic ring cultures [3]; 50 nM, 4 h of treatment)	anti-vascular effect on established microvessel network (rat aortic ring cultures [3]; 50 nM, 24 h)
COc1ccc(C2=CC(=O)CCc3c2cc(OC)c(OC)c3OC)cc1O [Compound 1, (Z)-8,9-dihydro-5-(3-hydroxy-4-methoxyphenyl)-1,2,3-trimethoxybenzo[7]annulen-7-one]	Microtubule disruption was observed	modifying the cells' structure	cells regained their shape	evident changes in the microvessels' structure	greater disruption	no inhibitory effect	significantly (p<0.01) inhibited the formation of microvessels	significantly (p<0.01) inhibited the formation of microvessels								
COc1ccc(C2=CC(=O)CCc3c2cc(OC)c(OC)c3OC)cc1N [Compound 28, 2-methoxy-5-(2,3,4-trimethoxy-7-oxo-6,7-dihydro-5H-benzo[7]annulen-9-yl)benzenaminium chloride]	Microtubule disruption was observed	modifying the cells' structure	cells regained their shape	evident changes in the microvessels' structure	greater disruption		did not demonstrate a decrease in microvessel formation	complete growth inhibition	complete growth inhibition							
COc1ccc(C2=CC(=O)CCc3c2cc(OC)c(OC)c3OC)cc1OC(=O)C(CC(C)C)NC(=O)C(O)C(N)Cc1ccccc1.Cl (stereo not shown) [Compound 44]	induce microtubule disruption	minor effect	reversible effect				slight decrease	significant (p<0.05) reduction		cell monolayer was disturbed	did not result in a clear anti-vascular effect	apparent microvessel breakdown				
COc1ccc(C2=CC(=O)COc3c2cc(OC)c(OC)c3OC)cc1OC(=O)C(CC(C)C)NC(=O)C(O)C(N)Cc1ccccc1.Cl (stereo not shown) [Compound 45, 2-methoxy-5-(7,8,9-trimethoxy-3-oxo-2H-1-benzoxepin-5-yl)phenyl 2-(3-amino-2-hydroxy-4-phenylbutanamido)-4-methylpentanoate]	disruption of microtubule organisation	severe effect	did not seem to regain their original shape				insignificantly decreased		almost complete inhibition	severe effect			did not demonstrate any obvious anti-vascular activity	did not demonstrate any obvious anti-vascular activity	sufficient to disrupt the microvessel network	more evident
